Measured values published in patent US7666874B2, “Pyrimidylaminobenzamide derivatives for hypereosinophilic syndrome” (Novartis AG, priority 2005, dated 2010).

Assays:
Ba/F3 Tel-PDGFRβ cells = molecular target: T1, Ba/F3 Tel-PDGFRβ cells (Homo sapiens, UniProt P09619); assay: IL-3 independence cell proliferation assay (ATPLite), Ba/F3 Tel-PDGFRβ; type: cell-based
T1 construct: TEL-PDGFRβ, TEL-PDGFRβ T681I, and TEL-FGFR3 [T/F] are cloned in MSCV-neomycin [MSCV-neo]; fused on or other part: P41212 (Transcription factor ETV6)
Experimental: (§6) TEL-PDGFRβ [T/P], FIP1L1-PDGFRα [F/P], and FIP1L1-PDGFRα T6741 cloned in MSCV-IRES-GFP [MSCV-GFP], and TEL-PDGFRβ, TEL-PDGFRβ T681I, and TEL-FGFR3 [T/F] are cloned in MSCV-neomycin [MSCV-neo].
(§7) Ba/F3 cells are cultured in RPMI 1640 (RPMI)+10% FBS+1 ng/mL mouse interleukin (IL)-3. Retroviral supernatants are generated and used to transduce Ba/F3 cells. T/P MSCV-neo and T/F MSCV-neo cell lines are selected with 1 mg/mL G418 in the presence of IL-3 for 8-10 days. F/P MSCV-GFP cell lines are selected in RPMI lacking IL-3 for 7-10 days. […] Transformed Ba/F3 cells are grown in RPMI lacking IL-3.
(§8) The effects of compounds on viability and proliferation of the cells were determined using the luminescent ATP Detection assay kit ATPLite™ from Perkin Elmer Life Sciences (Cat. No: 6016947) according to the instructions of the suppliers. This assay system is based on the production of light (luminescence) caused by the reaction of ATP with added luciferase and D-luciferin. […]
(§9) The effect of the compound was expressed as percent reduction of the control signal. The TGI50 values were determined from the dose response curves by graphical extrapolation.

[1] = molecular target: T2, Ba/F3 cells transformed by TEL-PDGFRβ T681I mutant (Homo sapiens, UniProt P09619, T681I); assay: Proliferation of Ba/F3 cells transformed by TEL-PDGFRβ T681I mutant; type: cell-based; conditions: Ba/F3 cells transformed with TEL-PDGFRβ T681I mutant
T2 construct: TEL (ETV6) portion (fusion partner); expressed in transfected cells; host or cells: Ba/F3 cells (retroviral transduction, MSCV-neo); the other entry of the earlier key: ETV6 (P41212, Transcription factor ETV6)
Experimental: as §6, §7, §8, §9

TEL-PDGFRβ [2] = assay: Western blot of TEL-PDGFRβ phosphorylation and signaling intermediates in Ba/F3 cells; type: cell-based
Experimental: For T/P: Ba/F3 cells stably expressing T/P or T/F are treated with serum starvation in plain RPMI 1640 for 4 hours prior to lysis. The cell extracts are clarified by centrifugation and used for immunoprecipitation or immunoblotting. The enzyme-linked immunoblotting procedures are performed as described. Applied antibodies include: rabbit anti-PDGFRβ serum (Pharmingen); rabbit anti-PI3K (p85) serum; mouse anti-phosphotyrosine 4G10 (Upstate Biotechnology); antibodies against FGFR3, phospho-PI3K p85 (Tyr-508) (Santa Cruz Biotechnology); PLCγ, phospho-PLCγ (Tyr-783) (Cell Signaling).

TEL-PDGFRβ [3] = assay: Murine bone marrow transplant model of TEL-PDGFRβ-induced myeloproliferative disease; type: in vivo, mouse (Balb/C); conditions: TEL-PDGFRβ transplanted mice
Experimental: (§1) Murine bone marrow transplant experiments are performed as previously described. MSCV-GFP retroviral supernatants are titered by transducing Ba/F3 cells with supernatant (plus polybrene, 10 μg/mL) and analyzing for the percentage of GFP+ cells by flow cytometry at 48 h post-transduction. Balb/C donor mice (Taconic) are treated for 5-6 days with 5-fluorouracil (150 mg/kg, intraperitoneal injection). Bone marrow cells from donor mice are harvested, treated with red blood cell lysis buffer, and cultured 24 h in transplant medium (RPMI+10% FBS+6 ng/mL IL-3, 10 ng/mL IL-6, and 10 ng/mL stem cell factor). Cells are treated by spin infection with retroviral supernatants (1 mL supernatant per 4×10^6 cells, plus polybrene) and centrifuged at 2500 rpm for 90 min. 24 h later, the spin infection is repeated, then cells are washed, resuspended in Hank's balanced salt solution, and injected into lateral tail veins of lethally irradiated (2×450 rad) Balb/C recipient mice (Taconic) at 0.5-1×10^6 cells/mouse. […] Animals are sacrificed when they had palpable splenomegaly or were moribund, or, if healthy, 7 days after sacrifice of the last animal in the placebo group.
(§2) Peripheral blood is collected from the retroorbital cavity using heparinized glass capillary tubes and analyzed by automated complete and differential blood cell counts and smears (stained with Wright and Giemsa). Single cell suspensions of spleen and bone marrow are prepared by pressing tissue through a cell strainer, followed by red blood cell lysis. Cells are frozen in 90% FBS, 10% DMSO.
(§3) For histopathology, tissues are fixed for at least 72 h in 10% neutral buffered formalin, dehydrated in alcohol, cleared in xylene, and infiltrated with paraffin on an automated processor (Leica). The tissue sections (4 μm) from paraffin-embedded tissue blocks are placed on charged slides and deparaffinized in xylene, rehydrated through graded alcohol solutions, and stained with hematoxylin and eosin.
(§4) For flow cytometry, cells are washed in PBS+1% bovine serum albumin (BSA), blocked with Fc-Block (BD Pharmingen) for 10 min on ice, and stained with monoclonal antibodies in PBS+1% BSA for 20 min on ice. Antibodies used are: allophycocyanin (APC)-conjugated Gr1, CD19, and TCRB; and phycoethrin (PE)-conjugated Mac-1, B220, and CD3 (BD Pharmingen). Flow cytometric analysis is performed on a FACSCalibur instrument and analyzed with CellQuest software. Viability is assessed by incubating cells with 7AAD (BD Pharmingen) for 5 min prior to flow cytometry. Cells are gated for viability (using forward/side scatter and 7AAD) and GFP positivity, and 10,000 events are analyzed from this subset for marker expression.
Statistical significance of differences between Compound (II)- and placebo-treated groups in survival time, white blood cell counts, and spleen weights are assessed using a two-sided Mann-Whitney U-test (Wilcoxon rank sum test).
A murine bone marrow transplant protocol is used to model myeloproliferative disease caused by TEL-PDGFRβ and FIP1L1-PDGFRα. Retroviral transduction of these fusion kinases into bone marrow cells of 5FU-treated donor mice, followed by transplantation into lethally irradiated recipients, produces a rapidly fatal myeloproliferative phenotype characterized by leukocytosis with myeloid predominance, splenomegaly, and extramedullary hematopoiesis.
(§5) Donor bone marrow cells are transduced with a murine retroviral vector expressing TEL-PDGFRβ or FIP1L1-PDGFRα and transplanted into recipients.

FIP1L1-PDGFRα = molecular target: T3, FIP1L1-PDGFRα (Homo sapiens, UniProt P16234); assay: Murine bone marrow transplant model of FIP1L1-PDGFRα-induced myeloproliferative disease; type: in vivo, mouse (Balb/C); conditions: FIP1L1-PDGFRα transplanted mice
T3 construct: FIP1L1 portion (fusion partner); expressed in transfected cells; host or cells: Balb/C mouse donor bone marrow cells (retroviral transduction, MSCV-GFP), transplanted into Balb/C recipients; the other entry of the earlier key: FIP1L1 (Q6UN15, Pre-mRNA 3'-end-processing factor FIP1)
Experimental: as §1, §2, §3, §4
A murine bone marrow transplant protocol is used to model myeloproliferative disease caused by TEL-PDGFRβ and FIP1L1-PDGFRα.
as §5

[4] = daily oral gavage 150 mg/kg/day from day 11
[5] = daily oral gavage 150 mg/kg/day from day 11 after transplant

T3 sequence (P16234 593-1089 limits assumed): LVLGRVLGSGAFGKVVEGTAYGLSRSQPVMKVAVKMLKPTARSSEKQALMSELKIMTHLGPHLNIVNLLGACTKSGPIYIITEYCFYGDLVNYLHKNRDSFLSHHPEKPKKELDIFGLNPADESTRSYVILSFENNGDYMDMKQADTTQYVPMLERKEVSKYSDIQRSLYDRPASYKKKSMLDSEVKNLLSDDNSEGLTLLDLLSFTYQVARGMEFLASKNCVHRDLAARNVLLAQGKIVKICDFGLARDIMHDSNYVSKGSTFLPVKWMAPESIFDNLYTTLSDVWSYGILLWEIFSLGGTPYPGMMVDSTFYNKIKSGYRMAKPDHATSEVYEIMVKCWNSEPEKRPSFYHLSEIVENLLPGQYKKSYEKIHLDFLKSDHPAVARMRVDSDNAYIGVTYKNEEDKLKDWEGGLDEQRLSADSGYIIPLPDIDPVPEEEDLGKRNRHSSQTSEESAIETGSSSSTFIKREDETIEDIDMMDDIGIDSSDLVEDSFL
T1 sequence (P09619 whole entry, stated change not applied, the tested form may be a part): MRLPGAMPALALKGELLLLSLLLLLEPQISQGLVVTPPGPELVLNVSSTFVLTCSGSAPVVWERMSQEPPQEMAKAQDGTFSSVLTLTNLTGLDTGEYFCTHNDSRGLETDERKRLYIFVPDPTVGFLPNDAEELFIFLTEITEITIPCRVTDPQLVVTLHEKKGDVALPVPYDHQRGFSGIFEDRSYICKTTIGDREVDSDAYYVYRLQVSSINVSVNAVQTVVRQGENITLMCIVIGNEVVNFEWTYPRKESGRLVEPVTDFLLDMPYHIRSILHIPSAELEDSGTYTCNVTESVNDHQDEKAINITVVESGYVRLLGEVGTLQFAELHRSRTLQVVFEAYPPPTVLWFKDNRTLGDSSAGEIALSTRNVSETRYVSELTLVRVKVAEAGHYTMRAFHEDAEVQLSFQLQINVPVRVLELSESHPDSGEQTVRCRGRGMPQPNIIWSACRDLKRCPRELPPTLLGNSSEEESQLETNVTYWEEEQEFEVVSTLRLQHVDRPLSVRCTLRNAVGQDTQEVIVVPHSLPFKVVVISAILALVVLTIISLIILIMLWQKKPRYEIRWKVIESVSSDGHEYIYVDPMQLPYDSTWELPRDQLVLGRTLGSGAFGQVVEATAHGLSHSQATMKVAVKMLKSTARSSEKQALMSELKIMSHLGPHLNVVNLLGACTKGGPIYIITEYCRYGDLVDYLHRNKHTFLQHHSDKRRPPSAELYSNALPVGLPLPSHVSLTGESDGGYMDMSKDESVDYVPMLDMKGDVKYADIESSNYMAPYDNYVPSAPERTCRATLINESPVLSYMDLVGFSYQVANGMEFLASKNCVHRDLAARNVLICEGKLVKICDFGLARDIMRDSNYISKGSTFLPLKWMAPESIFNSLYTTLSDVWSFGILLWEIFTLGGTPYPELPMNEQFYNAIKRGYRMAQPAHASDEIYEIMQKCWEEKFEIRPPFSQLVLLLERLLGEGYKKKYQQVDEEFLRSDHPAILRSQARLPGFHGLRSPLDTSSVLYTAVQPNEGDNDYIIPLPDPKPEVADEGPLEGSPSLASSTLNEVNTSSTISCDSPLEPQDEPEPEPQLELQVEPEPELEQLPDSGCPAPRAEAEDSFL
T2 sequence (P09619 554-1106 T681I limits assumed): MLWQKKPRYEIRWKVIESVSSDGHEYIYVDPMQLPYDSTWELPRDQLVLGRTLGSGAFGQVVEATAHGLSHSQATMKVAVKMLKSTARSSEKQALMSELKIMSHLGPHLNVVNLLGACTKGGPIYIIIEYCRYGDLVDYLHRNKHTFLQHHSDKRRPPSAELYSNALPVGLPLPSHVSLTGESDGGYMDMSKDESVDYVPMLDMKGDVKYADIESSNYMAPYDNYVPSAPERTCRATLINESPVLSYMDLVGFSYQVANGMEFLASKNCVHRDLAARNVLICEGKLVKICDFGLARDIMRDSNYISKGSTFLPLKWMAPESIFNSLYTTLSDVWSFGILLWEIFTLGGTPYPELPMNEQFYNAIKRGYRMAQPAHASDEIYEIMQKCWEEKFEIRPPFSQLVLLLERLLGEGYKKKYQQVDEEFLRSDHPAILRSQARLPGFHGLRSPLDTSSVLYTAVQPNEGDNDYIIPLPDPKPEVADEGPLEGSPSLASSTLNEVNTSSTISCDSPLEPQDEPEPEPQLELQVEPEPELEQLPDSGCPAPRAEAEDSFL

Compound: Cc1cn(-c2cc(NC(=O)c3ccc(C)c(Nc4nccc(-c5cccnc5)n4)c3)cc(C(F)(F)F)c2)cn1 [Compound (II), 4-methyl-3-[[4-(3-pyridinyl)-2-pyrimidinyl]amino]-N-[5-(4-methyl-1H-imidazol-1-yl)-3-(trifluoromethyl)phenyl] benzamide]
- GI50 (Ba/F3 Tel-PDGFRβ cells; Ba/F3 Tel-PDGFRβ cells, 70 h incubation, read-out: IC50, inhibition of proliferation): < 100 nM
- Inhibition of transformed Ba/F3 cells (Ba/F3 Tel-PDGFRβ cells; Ba/F3 cells transformed with TEL-PDGFRβ): inhibited
- Inhibition of transformed Ba/F3 cells [1]: inhibited
- Phosphorylation of PDGFRβ signaling intermediates including PLCγ and PI3K (TEL-PDGFRβ [2]): effectively inhibited
- TEL-PDGFRβ tyrosine autophosphorylation (TEL-PDGFRβ [2]): effectively inhibited
- FACS analysis of spleen, B220+/CD19+ cells (TEL-PDGFRβ [3]; compared to placebo): slightly increased percentage
- FACS analysis of spleen, Gr1+/Mac1+ cells (TEL-PDGFRβ [3]; compared to placebo): consistently reduced percentage
- Histopathology of hematopoietic organs (TEL-PDGFRβ [3]; compared to placebo): significantly less severe myeloproliferative disease
- Liver weight, Mean (TEL-PDGFRβ [3]; [4]): 1492.5 mg
- Liver weight, Median (TEL-PDGFRβ [3]; [4]): 1535 mg
- Liver weight, Range (TEL-PDGFRβ [3]; [4]): 1320 to 1590 mg
- Spleen weight, Mean (TEL-PDGFRβ [3]; [4]): 350.0 mg
- Spleen weight, Median (TEL-PDGFRβ [3]; [4]): 340 mg
- Spleen weight, Range (TEL-PDGFRβ [3]; [4]): 250 to 470 mg
- WBC, Median (TEL-PDGFRβ [3]; [4]): 1.59e+07 mL⁻¹
- WBC, Range (TEL-PDGFRβ [3]; [4]): 10.9-33.5 ×10^6/mL
- WBC, Mean (TEL-PDGFRβ [3]; [5]): 1.86e+07 mL⁻¹
- Survival (TEL-PDGFRβ [3]; placebo median latency 17 days, p<0.001): 26 days
- Total white blood cells (WBC) (TEL-PDGFRβ [3]; vs 563.7 for placebo, p<0.05): 18.6 ×10^6 cells/mL
- Extramedullary hematopoiesis in liver (FIP1L1-PDGFRα; compared to placebo): notable absence of any extramedullary hematopoiesis
- Histopathology of spleen (FIP1L1-PDGFRα; compared to placebo): striking preservation of normal splenic architecture
- Liver weight, Mean (FIP1L1-PDGFRα; [4]): 1128.0 mg
- Liver weight, Median (FIP1L1-PDGFRα; [4]): 1090 mg
- Liver weight, Range (FIP1L1-PDGFRα; [4]): 1080 to 1290 mg
- Spleen weight, Mean (FIP1L1-PDGFRα; [4]): 88.0 mg
- Spleen weight, Median (FIP1L1-PDGFRα; [4]): 100 mg
- Spleen weight, Range (FIP1L1-PDGFRα; [4]): 50 to 100 mg
- WBC, Median (FIP1L1-PDGFRα; [4]): 4.7e+06 mL⁻¹
- WBC, Range (FIP1L1-PDGFRα; [4]): 4.0-9.6 ×10^6/mL
- WBC, Mean (FIP1L1-PDGFRα; [5]): 5.6e+06 mL⁻¹
- Survival: all treated animals alive and healthy until study termination (FIP1L1-PDGFRα; all placebo animals lost by day 24): ≥ 33 days
- Total WBC (FIP1L1-PDGFRα; vs 569.7 for placebo, p<0.01): 5.6 ×10^6 cells/mL
